According to patent US20110166206A1, “UBIQUILIN REGULATION OF PRESENILIN ENDOPROTEOLYSIS, AND SUPPRESSION OF POLYGLUTAMINE-INDUCED TOXICITY IN CELLS” (UNIVERSITY OF MARYLAND BIOTECHNOLOGY INSTITUTE, priority 2005, published 2011):
Square brackets hold non-standard residues; d marks the D form. Peptide text beside a SMILES is read from it. * marks the point of attachment. Nle = CCCC[C@H](N)C(=O)O; Cbz = O=C(OCc1ccccc1)*

How the values were obtained:
PS2 NTF [1] = experiment: Proteasome inhibitor treatment of PS2 inducible cells, PS2 NTF immunoblot; type: cell-based, human; conditions: 16 h treatment
Protocol: (§1) (A) PS1 and PS2 inducible cells were treated with various classes of proteasome inhibitors for 16 hours. Afterwards, cell lysates were collected, separated by SDS-PAGE, and analyzed by immunoblotting. PS1 NTF levels and PS2 NTF levels were reduced by treatment with all of the different inhibitors albeit to varying extents.
(§2) PS2 inducible cells were treated for 16 h with 10 uM clasto-lactacystin β-lactone, N-Acetyl-Leu-Leu-Nle-CHO (ALLN), 50 uM epoxomicin, 40 uM MG132, and […]. Afterwards, lysates were collected and the fragment levels were analyzed by SDS-PAGE and immunoblotting.
(§3) First, to rule out that MG132 inhibits another factor involved in PS cleavage, PS1 and PS2 inducible cells were treated with a series of different known proteasome inhibitors including clasto-lactacystin p-lactone, ALLN, epoxomicin, MG132, and MG262. […] While each inhibitor had varying effects on the extent of reduction, PS1 NTF levels were reduced by an average of 1.3-fold and PS2 NTF levels were reduced by an average of 1.4-fold. At first glance the fold reduction appears modest; however, considering that degradation of the PS fragments by the proteasome has also been blocked and that fragment levels are tightly regulated, the reduction in PS fragment levels appears significant. Furthermore, it was considered unlikely that all […] proteasome inhibitors used here caused nonspecific inhibition of an unknown factor involved in PS endoproteolysis. Instead, it was considered that the most straightforward interpretation of the results is that, in accord with the mode of action the drugs, they all inhibit the proteasome, which is involved in PS endoproteolysis.

PS1 NTF = experiment: Proteasome inhibitor treatment of PS1 inducible cells, PS1 NTF immunoblot; type: cell-based; conditions: 16 h treatment
Protocol: as §1, §2, §3

endogenous PS1 NTF = experiment: UBQLN overexpression in wild-type HEK293 cells, endogenous PS1 NTF immunoblot; type: cell-based; conditions: normal HEK293 cells
Protocol: (C) Endogenous PS fragment levels were analyzed in HEK293 cells that were transfected with increasing amounts of UBQLN1 or UBQLN2 expression plasmids. Equivalent amounts of protein lysates were separated by 10% SDS-PAGE and immunoblotted with anti-PS1 NTF antibody. The filter was then reprobed with anti-ubiquilin antibody to ensure overexpression of UBQLN and with an anti-actin antibody to ensure equal protein loading. Overexpression of UBQLN decreases PS1 NTF levels and the extent of reduction was quantified again by densitometric analysis. Graph is quantification of untransfected and […] UBQLN cDNA plasmid transfected lanes.
Preparation of protein lysates, SDS-PAGE and immunoblotting of proteins were described previously. Primary antibodies used were rabbit anti-PS2 loop and rabbit anti-PS2 NH,-terminus, both raised to GST-PS2 fusion proteins; rabbit anti-ubiquilin [43] which reacts with UBQLN1 and UBQLN2 polypeptides; rat anti-PS1 NH2,-terminus (Chemicon International, Temecula, Calif.); rabbit anti-PS1 loop raised to GST-PS1 fusion proteins; goat anti-p27 and goat anti-actin (Santa Cruz Biotechnology, Santa Cruz, Calif.); mouse monoclonal anti-tubulin (Sigma-Aldrich, St. Louis, Mo.); rabbit anti-nicastrin (Abeam, Cambridge, Mass.), rabbit anti-Pen-2 (Zymed, San Francisco, Calif.); and rabbit anti-Aph-la (Covance, Berkeley, Calif.). […]

PS2 NTF [2] = experiment: Proteasome inhibitor wash-out time course with CHX in PS2 stable cells; type: cell-based, human
Protocol: (B) PS2 inducible cells were treated continuously with MG132 or MG262 or the drugs were washed from half the cultures after 7 hours of incubation with the drugs. Immediately after washing, CHX was added to all of the cultures to inhibit protein synthesis. Lysates were collected at two hour time points thereafter and the PS fragment levels were analyzed by SDS-PAGE and subsequent immunoblotting. […] Please note that because PS2 expression was not been induced with PonA, the FL protein is not detectable. The filter was reprobed with anti-p27 antibody to monitor recovery of proteasome activity. p27 has a half-life of two hours; therefore once proteasome inhibition is relieved the level of p27 begins to decline (third panel, right), whereas under constant proteasome inhibition its levels remain steady (third panel, left), serving as an important control.
(C) Densitometric analysis was used to quantify the extent of increase in PS2 NTF levels in conditions of constant proteasome inhibition and upon removal of proteasome inhibition. At time=0 the NTF levels in the washed sample is equal to that of MG132 treated sample; however, NTF levels quickly begin to […], whereas in the MG132 treated samples PS2 NTF levels stay steady.
PS2 inducible cells were grown in two sets on […]. Both sets were treated with MG132 or MG262 (also called Z-Leu-Leu-Leu-B(OH)2, Boston Biocem). 7 h later, the drugs were washed off one set by rinsing twice with warm 1×PBS and replacing with fresh DMEM supplemented with 10% FBS, allowing the proteasomes to recover. Also at that point, cyclohexamide (final cont. […]) was added to all dishes. Lysates were collected at two hour time points and the fragment levels were analyzed by SDS-PAGE and subsequent immunoblotting.
To directly address whether the proteasome is responsible for endoproteolysis of PS2, another time course experiment utilizing proteasome inhibitors was devised. […]

PS1 and PS2 NTF and CTF = experiment: MG132 treatment of UBQLN-transfected PS1 and PS2 stable cell lines, fragment immunoblot; type: cell-based; conditions: proteasome inhibitor treatment
Protocol: FIG. 3. […] (A) PS1 cells lines that were either not induced (lanes 1 and 3) or induced with PonA (lanes 2 and 4) and either left untransfected (lanes 1 and 2) or transfected with UBQLN1 expression plasmids (lanes 3 and 4) were treated for 7 h with MG132 after which protein lysates were collected and analyzed by immunoblotting. […] For clarification, if UBQLN did increase the turnover rate then by blocking degradation, turnover would be stopped and PS fragment levels would be similar, or increase, relative to that of untransfected cells. […] Densitometric analysis was used to quantify the extent of reduction. Each experiment was repeated more than three times and similar trends were observed.
(B) Same experiment and results as described in (A) except that PS2 inducible cell lines were used to examine PS2 NTF and CTF levels. […] UBQLN exerts greater effects on PS2 probably because it interacts more strongly with PS2, see [43].
HeLa and HEK293 cells were grown in DMEM supplemented with 10% FBS. PS1 and S2 inducible cell lines were generated by transfection of the pERV-expressing HEK293 cell line (Stratgene, IaIolla, Calif.) with FL human PS2 cDNA under the control of ponasteroneA (PonA)-inducible cassette in plasmid pEGSH (Stratagene). Stable integration of the pEGSH plasmid was achieved by selection for hygromycin resistance. […]

| Compound | PS2 NTF levels (PS2 NTF [1]) | PS1 NTF levels (PS1 NTF) | reduction of endogenous PS1 NTF levels (endogenous PS1 NTF) | rise in PS2 NTF levels after inhibitor washed out (PS2 NTF [2]; 12 hours after wash-out, CHX added) [fold] | PS2 NTF levels under continuous inhibitor (PS2 NTF [2]; inhibitor present for the continuous duration) | PS fragment levels, MG132 treated vs MG132 untreated cells (PS1 and PS2 NTF and CTF) | PS2 fragments after removal of inhibitor (PS2 NTF [2]; proteasomes recover activity) |
| --- | --- | --- | --- | --- | --- | --- | --- |
| CC(C)[C@H](O)[C@@]12NC(=O)[C@H](C)[C@@H]1OC2=O [clasto-lactacystin p-lactone, clasto-lactacystin β-lactone] | reduced | reduced |  |  |  |  |  |
| UBQLN2: ubiquilin-2, 72% identical to UBQLN1, overexpressed from an expression plasmid |  |  | approximately 1.7 fold |  |  |  |  |
| CC(C)C[C@@H](C=O)NC(=O)[C@H](CC(C)C)NC(=O)[C@H](CC(C)C)NC(=O)OCc1ccccc1 [MG132] (Cbz-Leu-Leu-Leu-aldehyde) | reduced | reduced |  | 1.8 | remained relatively constant | reduced PS fragment levels |  |
| CCCC[C@@H](C=O)NC(=O)[C@H](CC(C)C)NC(=O)[C@H](CC(C)C)NC(C)=O [ALLN, N-Acetyl-Leu-Leu-Nle-CHO] (Ac-Leu-Leu-[Nle]-aldehyde) | reduced | reduced |  |  |  |  |  |
| CC(C)C[C@H](NC(=O)[C@H](CC(C)C)NC(=O)[C@H](CC(C)C)NC(=O)OCc1ccccc1)B(O)O [MG262, Z-Leu-Leu-Leu-B(OH)2] | reduced | reduced |  |  |  |  | notable increase in PS2 fragments |
| CC[C@H](C)[C@H](NC(=O)[C@H]([C@@H](C)CC)N(C)C(C)=O)C(=O)N[C@H](C(=O)N[C@@H](CC(C)C)C(=O)[C@@]1(C)CO1)[C@@H](C)O [epoxomicin] | reduced | reduced |  |  |  |  |  |
